For assay [1], the system named is IL4, IL13, IL31, CCL17, CCL26, CCL2 gene expression in Th2 stimulated human skin. In words: Th2 stimulated human skin explants, RT-qPCR of biomarkers. Format: cell-based. Conditions: Homo sapiens, calculated to Th2 stimulated control; for inhibition at 2.5 µM: 2.50 μM. The text has this: (§1) Human skin biopsy tissue was stimulated to induce a Th17 immuno-phenotype using a method derived from Feghali-Bostwick et al. Induction of a Th17 phenotype in human skin—a mimic of dermal inflammatory diseases, Methods and Protocols, 2, 45 (2019). The pharmacodynamic assay described therein involves a similar paradigm to elicit a Th2 response and is used to evaluate the therapeutic potential of the active compounds (e.g., BETi1; and
(§2) Freshly excised healthy human skin tissue from abdominoplasties is defatted, cleaned and sectioned into 7 mm biopsies. The biopsies are placed in Transwell® inserts with the epidermis apical and exposed to air and the dermis submerged in media in the basal chamber. The biopsies are pre-treated overnight at 37° C., 5% CO2 with different compounds and controls added to the media in the basal chamber.
(§3) The next day, contents of the basal chamber is replaced with fresh media containing the test compound (listed below) and a stimulation cocktail for either Th2 inflammation (proprietary of service provider cocktail) or Th17 inflammation (mix of antibodies against CD3, CD28, IL-4, IFNγ and recombinant IL-1β, IL-6, IL-21, TGF-β). The biopsies are incubated at 37° C., 5% CO2 for a further 24 hrs.
(§4) A list of all the treatments is provided below: • 1. Untreated control (for both stimulations) • 2. Th2 stimulated control • 3. Th17 stimulated control • 4. Th2+BETia at 0.01, 0.04, 0.16, 0.63, 2.50, and 10 μM • 5. Th2+BETi1 at 0.01, 0.04, 0.16, 0.63, 2.50, and 10 μM • 6. Th2+Ruxolitinib at 0.01, 0.04, 0.16, 0.63, 2.50, and 10 μM • 7. Th2+betamethasone valerate 210 μM (equivalent to 0.01%) • 8. Th17+BETia at 10 μM • 9. Th17+BETi1 at 10 μM • 10. Th17+Ruxolitinib at 10 μM • 11. Th17+betamethasone valerate 210 μM (equivalent to 0.01%)
(§5) After harvesting, the biopsies are cut in half, and one half is homogenized and used for RNA extraction by standard methods and inflammatory pathways is assessed by RT-qPCR. The ability of BETi1 or BETia to inhibit the activity of up to six biomarkers per stimulation is reported as percent activity calculated to stimulated control and fold change in gene expression calculated to untreated control with respect to Th2 (IL4, IL13, IL31, CCL17, CCL26, CCL2) and Th17 (CXCL10, IL17α, IL22, IL36γ, CCL20, SerpinB4). Statistical analysis is performed on data sets from all 3 donors combined and compares the percent inhibition of each biomarker by each treatment calculated to its respective vehicle.
(§6) qPCR values were calculated using the relative quantification approach outlined by Livak, et al (2001) (Section 9, Reference 2). The Ct values (threshold cycle) defined as the fractional cycle number at which the amount of amplified target reaches a fixed threshold, were normalised to the Ct value of an internal biomarker or ‘housekeeping gene’ (GAPDH). The higher limit of detection was set at a Ct value of 40, and any target having not reached Ct by 40 cycles was set to this value. The delta Ct values (dt(Ct)) refers to the Ct of the gene of interest minus the Ct of the internal biomarker. The ddt(Ct) is the dt(Ct) value of the gene minus the average dt(Ct) value of the untreated samples. The ddt(Ct) is converted to power by the equation; =power(2,dt(Ct)). Fold change was calculated as ratio of the power of the gene of interest divided by the average power of the untreated samples. This normalizes the untreated samplers to a value of 1. For the comparison of multiple skin donors, the stimulated samples were normalized to 100% maximum activity (such to normalize variability between different skin donors). Percent activity was calculated as the percent increase or decrease in stimulation compared to the stimulated samples set at 100% maximum activity. Percent change was calculated as: Inhibition=(100−(avg % activity/stimulated)*100). Statistical analysis was performed using One-way ANOVA with Dunnett's Multiple Comparisons (non parametric). […]

Assay [2] concerns CXCL10, IL17α, IL22, IL36γ, CCL20, SerpinB4 gene expression in Th17 stimulated human skin. Description: Th17 stimulated human skin explants, RT-qPCR of biomarkers. Format: cell-based. Conditions: Homo sapiens, 10 μM, calculated to Th17 stimulated control, three skin donors.
Description: as §1, §2, §3, §4, §5, §6

In assay [3] the test system is anti collagen antibodies induced arthritis (ACAIA). In words: ACAIA mice: hot plate withdrawal latency. Format: in vivo, Balb/c mice. Here is the method:
On days 0, 5 and 11 animals are placed on hot plate apparatus (53±1° C.) and the time until the first response is observed and recorded.

In assay [4] the test system is MMP-9. In words: RHE vitiligo model: MMP-9 secretion by ELISA. Format: cell-based, human. Conditions: Rux 1.5%, 48 h. Here is the method:
(§7) […] Three epidermis samples per condition are fixed in 4% formaldehyde solution and embedded in paraffin for further analysis (morphology analysis, melanin and melanocytes localisation/quantification). Three other epidermis samples per condition are put in a specific lysis buffer for total RNA extraction.
(§8) At the end of the treatments, culture media is collected (from 3 epidermis per condition), aliquoted and stored at −20° C. until use in ELISA assays. The quantity of MMP-9 secreted by the epidermis at the end of the treatments is analysed using the human MMP-9 Quantikine ELISA kit (Bio-Techne; DMP900). The secretion of E-cadherin in culture media is measured using to human E-cadherin Quantikine ELISA kit (Bio-Techne; DCADE0) dedicated for the measurement of natural human E-cadherin in culture supernates, serum, plasma, urine, and saliva.
(§9) The ELISAs are performed following the instructions of the supplier. The quantities of MMP-9 and E-cadherin are determined by comparisons with standard curves performed with recombinant human MMP-9 or E-cadherin provided in the kits.
(§10) Quantification of secretion of MMP-9 and E-cadherin by ELISA from collected culture medium was conducted in accordance with Method E. The results, shown in FIG. 5A and FIG. 5B are based on Tables 23 and 24 respectively and presented in percentage of release in comparison to the stimulated control. A statistical analysis (student t-test) was performed to compare the effects of the treatments with the formulations to the vehicle (with $: 0.05>p>0.01; $$: 0.01>p>0.001; and $$$: p<0.001). The same analysis was performed to compare the effects of the vehicle and of the unstimulated control to the stimulated control (with *: 0.05>p>0.01; **: 0.01>p>0.001; and ***: p<0.001). The analysis was performed from three replicates per condition (n=3). The mean of the three values and the standard deviation are presented on the histograms in FIG. 5A and FIG. 5B. As shown in Table 21 and FIG. 5A and consistent with the results of Part A, MMP-9 secretion was increased following the stimulation with the cytokines, which validates the assay.
(In general: ELISA stands for enzyme-linked immunosorbent assay.)

Assay [5] has as its system E-cadherin. Description: RHE vitiligo model: E-cadherin secretion by ELISA. Format: cell-based, human. The settings on record: Rux 1.5%, 48 h. As to the method: as §7, §8, §9, §10
Setting [6] is: TNF-α/IFN-γ stimulated RHE, replicates N1-N3.
The mark [7] stands for this setting: culture medium of RHE, TNF-α 12 ng/ml/IFN-γ 12 ng/ml.
Setting [8] is: culture medium of RHE, TNF-α 12 ng/ml/IFN-γ 12 ng/ml, replicates N1-N3.

Structures are written as SMILES. Several values for one entry are separate records, joined by “and”; a condition that tells them apart may be missing. Equal entries are not always repeated. Where two headings read alike, the source gives them in different places.

As for `CCNC(=O)c1cc2c(-c3ccn(C)c(=O)c3Oc3c(C)cc(F)cc3C)cn(C)c(=O)c2[nH]1` [BETia], the inhibition at 0.01 µM in assay [1] (read-out: % Inhibition CCL17) is 28.2%; in assay [1] (read-out: % Inhibition CCL26), 8.3%; in assay [1] (read-out: % Inhibition IL31) it was below 0%; in assay [1] (read-out: % inhibition CCL2), below 0%; in assay [1] (read-out: % inhibition IL4), below 0%; in assay [1] (read-out: % inhibition IL13), 22%. Besides, the inhibition at 0.04 µM in assay [1] (read-out: % Inhibition CCL26) was around 38%; in assay [1] (read-out: % Inhibition IL31), below 0%; in assay [1] (read-out: % inhibition CCL2) it was below 0%; in assay [1] (read-out: % inhibition IL4) it was below 0%; in assay [1] (read-out: % inhibition IL13), 15.8%. Besides, the inhibition at 0.16 µM in assay [1] (read-out: % Inhibition CCL17) was 31.8%; in assay [1] (read-out: % Inhibition CCL26) it was 46.3%; in assay [1] (read-out: % Inhibition IL31) it was 19.1%; in assay [1] (read-out: % inhibition CCL2), below 0%; in assay [1] (read-out: % inhibition IL4) it was 56.8%; in assay [1] (read-out: % inhibition IL13), 27.7%. Further, the inhibition at 0.63 µM was 25.4% in assay [1] (read-out: % Inhibition CCL17), 2.8% in assay [1] (read-out: % Inhibition CCL26), below 0% in assay [1] (read-out: % inhibition CCL2) and 22.3% in assay [1] (read-out: % inhibition IL13). In addition, the inhibition at 2.5 µM in assay [1] (read-out: % Inhibition CCL17) is 30%; in assay [1] (read-out: % Inhibition CCL26), 8%; in assay [1] (read-out: % inhibition CCL2) it was below 0%; in assay [1] (read-out: % inhibition IL4), 57.5%; in assay [1] (read-out: % inhibition IL13), 24.9%. Further, the inhibition at 10 µM in assay [1] (read-out: % Inhibition CCL26) was around 8%; in assay [1] (read-out: % inhibition CCL2), 21.5%; in assay [1] (read-out: % inhibition IL4) it was around 76%; in assay [1] (read-out: % inhibition IL13), 53.4%; in assay [2] (read-out: % inhibition CCL20) it was 40.1%; in assay [2] (read-out: % inhibition CXCL10) it was 71.3%. For the same compound, the inhibition at 10 µM in assay [2] (read-out: % inhibition IL22) was 79.7%; in assay [2] (read-out: % inhibition IL36γ), 78.2%; in assay [2] (read-out: % inhibition Serpinβ4), 71.2%.
In the case of `C[C@@H]1C[C@H]2[C@@H]3CCC4=CC(=O)C=C[C@]4(C)[C@@]3(F)[C@@H](O)C[C@]2(C)[C@@]1(O)C(=O)CO` [Dex], the “Hot Plate Change in withdrawal latency (Avg.)” value was found to be 11.71 s in assay [3] (1 mg/kg IA, Baseline); 10.14 s in assay [3] (1 mg/kg IA, Day 5); 12.86 s in assay [3] (1 mg/kg IA, Day 11); 11.86 s in assay [3] (1 mg/kg IP, Baseline); 12.43 s in assay [3] (1 mg/kg IP, Day 5); 12.29 s in assay [3] (1 mg/kg IP, Day 11).
With `N#CC[C@H](C1CCCC1)n1cc(-c2ncnc3[nH]ccc23)cn1` [Rux], the “MMP-9 (% stimulated ctl) Mean” value in assay [4] (TNF-α/IFN-γ stimulated RHE) was 11%. Further, the “MMP-9 (% stimulated ctl)” value in assay [4] (setting [6]) was 2% and 28% and 4%. In addition, the “Mean conc MMP-9” value in assay [4] (setting [7]) worked out at 2.0 ng/mL. In addition, the “Conc MMP-9” value in assay [4] (setting [8]) is 0.4 ng/mL and 4.9 ng/mL and 0.7 ng/mL. Besides, in assay [5] (TNF-α/IFN-γ stimulated RHE), the “E-Cad (% stimulated ctl) Mean” value is listed as 160%. For the same compound, the “E-Cad (% stimulated ctl)” value in assay [5] (setting [6]) is 77% and 247% and 155%. The “Mean conc E-Cad” value in assay [5] (setting [7]) was found to be 3.7 ng/mL. In assay [5] (setting [8]), the “Conc E-Cad” value is 1.8 ng/mL and 5.7 ng/mL and 3.6 ng/mL.

A word on the inhibition: it is how much of the control response was suppressed.
